From patent US20050118603A1, “Target detection system having a conformationally sensitive probe comprising a nucleic acid based signal transducer” (Ahram Biosystems Inc., priority 2002, published 2005)
{Fluorescein} = fluorescein attached by a linker

How the values were obtained:
streptavidin [1] = target: T1, streptavidin (Streptomyces avidinii, UniProt P22629); experiment: Receptor-binding assay, temperature dependence of fluorescence signal of unimolecular probes (Examples 11-17); details: for relative increase of the fluorescence intensity (¼ molar equivalent of streptavidin divided by that without streptavidin): 25° C., 50 pmol probe
T1 construct: purchased Pierce (IL, USA)
Method: In order to perform receptor-binding assay, about 50 pmol of each unimolecular probe was mixed with 0, ⅛, and ¼ molar equivalent of streptavidin (0, 6.25, 12.5 pmol, respectively) in 50 μL of pH 8.5 10 mM Tris containing 50 mM KCl, […] well of a 96 well PCR plate (Bio-Rad, CA, USA). Note that ¼ molar equivalent of streptavidine corresponds to 1 molar equivalent of the biotin binding site in streptavidin with respect to the amount of the unmolecular probe used because streptavidin has 4 biotin binding sites. The assay solutions were then incubated for about 30 min at 60° C. The temperature dependence of the fluorescence signal from each well was measured with an iCycler iQ real time PCR machine purchased from Bio-Rad (CA, USA) using the melting profile protocol.
The assay solutions for the unimolecular probes (50 pmol of each probe with 0, ⅛, and ¼ molar equivalent of streptavidin) were prepared in a 96 well PCR plates by the same procedure described in Example 11. As in Example 11, the temperature dependence of the fluorescence signal was measured with an iCycler iQ real time PCR machine.
Again, the assay solutions for the above unimolecular probes (50 pmol of each probe with 0, ⅛, and ¼ molar equivalent of streptavidin) were prepared in a 96 well PCR plates by the same procedure described in Example 11, and the temperature dependence of the fluorescence signal was measured with an iCycler iQ real time PCR machine.
Again, the assay solutions for the above two unimolecular probes (50 pmol of each probe with 0 and ¼ molar equivalent of streptavidin) were prepared in a 96 well PCR plates by the same procedure described in Example 11, and the temperature dependence of the fluorescence signal was measured with an iCycler iQ real time PCR machine.
Assay solutions for the above unimolecular probe (50 pmol of each probe with 0 and ¼ molar equivalent of streptavidin) were prepared in a 96 well PCR plates by the same procedure described in Example 11, and the temperature dependence of the fluorescence signal was measured.
Assay solutions for the above unimolecular probe (50 pmol of each probe with 0 and ¼ molar equivalent of streptavidin with total volume including the buffer solution being 50 μL) were prepared in a 96 well PCR plates using the following four buffer solutions: pH 6.0 10 mM MES containing 50 mM KCl, 2.5 mM MgCl2; pH 7.0 10 mM Tris containing 50 mM KCl, 2.5 mM MgCl2; pH 8.0 10 mM Tris containing 50 mM KCl, 2.5 mM MgCl2; and pH 9.0 10 mM Tris containing 50 mM KCl, […] The temperature dependence of the fluorescence signal from each well was measured with an iCycler iQ real time PCR machine.

streptavidin [2] = target: T1, streptavidin; experiment: Unimolecular probe assay for streptavidin analysed by non-denaturing electrophoresis (Example 3); format: binding; details: in the presence of streptavidin; incubated in ice for an hour
Text: Two unimolecular affinity probes, UP1-34B (SEQ ID NO: 127) and UP2-6B/36B (SEQ ID NO: 128), having biotin as a probe ligand were used to detect a receptor agent, streptavidin (SA). The unimolecular affinity probe UP1 is depicted schematically in FIG. 18. UP1 has a biotin-coupled thymidine at the 34th position, and UP2 has two biotin-coupled thyrnidines at the 6th and 36th positions (see FIG. 23A for the structure of the biotin-coupled thymidine). Each unimolecular probe has an interactive label pair consisting of a fluorescer, fluorescein, and a quencher, DABCYL (4-(4′-dimethylaminophenylazo)benzoic acid), which are covalently linked to the 5′ and the 3′ terminus by a linker, respectively. The structures of the fluorescein and DABCYL with the linker are shown in FIGS. 23B and 23D, respectively. […] This causes decrease of the fluorescence intensity from the probe compared to the dissociated conformation in which the stem duplex is dissociated and thus the fluorescer moiety is located distal from the quencher moiety. […]
Assay solutions were prepared according to the compositions summarized in Table 6, incubated in ice for an hour, and analyzed by electrophoresis. […] Dissociation of the stem duplexes due to the destabilization effect caused by the binding of the receptor agent is manifested by the increased fluorescence. […]

streptavidin [3] = target: T1, streptavidin; experiment: Inhibition of binding of the receptor agent to the probe ligand using unimolecular probe UP6-23B (Example 18); details: 12.5 pmol streptavidin, 50 pmol probe; background subtracted
Method: Assay solutions for the inhibition test were prepared as follows. In each well of a 96 well PCR plate, 50 μL of 10 mM Tris, pH 8.5, 50 mM KCl, 2.5 mM MgCl2 containing 12.5 pmol of streptavidin and different amount of an inhibitor (biotin) was introduced and incubated for about 30 min at room temperature. About 50 pmol of the probe UP6-23B (SEQ ID NO: 141) was then added to each well and incubated for about 30 min at 60° C. before the fluorescence measurement.

[4] = system: T2, PKC probe UP10-23PKC (SEQ ID NO: 165), peptide KRTLRRC conjugated to the UP10-23A pre-probe
T2 sequence: KRTLRRC

streptavidin [5] = target: T1, streptavidin; experiment: Immobilized trimolecular affinity probe assay for detecting streptavidin (Example 9); format: binding; details: upon addition of streptavidin, depending on amount added; CM3* fluorescence at 535 nm
Text: Two immobilized trimolecular affinity probes having a probe ligand (biotin) conjugated to the first complement sequence were used to detect streptavidin. One of the trimolecular probes used in this example is depicted schematically in FIG. 15. The first probe consists of an object oligonucleotide OB1-1B (SEQ ID NO: 135) comprising first and second object sequences, a first complement sequence CM2-4B (SEQ ID NO: 136) having a probe ligand, and a second complement sequence CM3* (SEQ ID NO: 131). The second probe consists of an object oligonucleotide OB1-1B (SEQ ID NO: 135), a first complement sequence CM1-4B (SEQ ID NO: 133) having a probe ligand, and a second complement sequence CM3* (SEQ ID NO: 131). The object oligonucleotide OB1-1B has a biotin covalently linked to the first nucleotide, adenosine in the 5′ end that is used to immobilize the object sequence (see FIG. 23E for the structure of the biotin-coupled abasic nucleotide). The second complement oligonucleotide CM3* has fluorescein as a fluorescent label at the 5′ terminal.
The object oligonucleotide having a biotin residue in the 5′ terminal was immobilized to microwell plate wells coated with streptavidin. […] Fluorescence from the second complement oligonucleotide CM3* from each well was then measured at 535 nm using a microwell plate reader (GENios, TECAN, USA).

[6] = pH 6.0, 7.0, 8.0, 9.0, without and with streptavidin

T1 sequence (P22629 25-183): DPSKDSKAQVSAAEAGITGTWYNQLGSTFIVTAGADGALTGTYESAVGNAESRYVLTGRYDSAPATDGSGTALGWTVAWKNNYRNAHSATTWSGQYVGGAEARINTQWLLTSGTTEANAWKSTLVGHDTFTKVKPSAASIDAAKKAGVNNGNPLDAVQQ

## UP1-34B: unimolecular affinity probe (SEQ ID NO: 127), biotin-thymidine at 34th position, fluorescein/DABCYL, 6 bp stem (GCAGCCTAGGAAACACCAAAGATGATATTTGGCTGC; listed as DNA, chemistry not fully specified)
Streptavidin [1]; 6 bp stem duplex vs 4 bp stem duplex
  melting temperature higher than that of the probe UP14-21B: about 20 °C
Streptavidin [2]
  fluorescence in the high mass region of the gel: strongly enhanced fluorescence

## O=C(O)CCCC[C@@H]1SC[C@@H]2NC(=O)N[C@@H]21 [biotin]
Streptavidin [3]
  fluorescence intensity of UP6-23B as a function of inhibitor concentration: decreases with increasing inhibitor concentration

## UP6-23B: unimolecular probe (SEQ ID NO: 141), 15 nt loop, 5 bp stem, biotin, fluorescein/DABCYL (GCAGGATACTCATTACCATACCTGC; biotin, fluorescein and DABCYL, positions not given here, hairpin)
Streptavidin [1]; absence of the receptor agent, 0 mM MgCl2
  melting temperature: about 38 °C
Streptavidin [1]; absence of the receptor agent, 5 mM MgCl2
  melting temperature: about 58 °C
Streptavidin [1]; [6]
  fluorescence intensity as a function of pH: increases dramatically depending on the pH
  melting temperature as a function of pH: increases with pH
Streptavidin [1]; presence of the receptor agent (¼ molar equivalent of streptavidin), 0 mM MgCl2
  melting temperature: about 33 °C
Streptavidin [1]; presence of the receptor agent (¼ molar equivalent of streptavidin), 5 mM MgCl2
  melting temperature: about 45 °C

## UP16-23B: unimolecular probe (SEQ ID NO: 151), stem and loop length as UP6-23B, different loop sequence with secondary 4 bp stem conformer (GCAGGACTCTCATTACACTGCCTGC; listed as DNA, chemistry not fully specified)
Streptavidin [1]
  relative increase of the fluorescence intensity (¼ molar equivalent of streptavidin divided by that without streptavidin): about 1.5

## UP2-6B/36B: unimolecular affinity probe (SEQ ID NO: 128), biotin-thymidines at 6th and 36th positions, fluorescein/DABCYL, 7 bp stem (GCAGCTCTAGGAAACACCAAAGATGATATTTGAGCTGC; listed as DNA, chemistry not fully specified)
Streptavidin [2]
  fluorescence in the high mass region of the gel: strongly enhanced fluorescence

## UP15-23B: unimolecular probe (SEQ ID NO: 150), stem and loop length as UP6-23B, different loop sequence with secondary 4 bp stem conformer (GCAGGATACTGCTTACCATACCTGC; biotin label, position not given here, hairpin)
Streptavidin [1]
  relative increase of the fluorescence intensity (¼ molar equivalent of streptavidin divided by that without streptavidin): about 3

## PKC (Protein Kinase C)
[4]
  fluorescence signal of the PKC probe after the kinase reaction and addition of anti-phosphothreonine antibody: a substantial increase of the fulorescence signal with respect to that measured with un-reacted PKC probe is observed in the absence of the inhibitor

## UP14-21B: unimolecular probe (SEQ ID NO: 149), 4 bp stem duplex, biotin, fluorescein/DABCYL (GCAGATACTCATTACCATACTGC; biotin, fluorescein and DABCYL, positions not given here, hairpin)
Streptavidin [1]; upon addition of streptavidin
  relative increase of the fluorescence signal, compared between the 4 bp and 6 bp stem probes: larger

## UP10-13B: unimolecular probe (SEQ ID NO: 155), biotin in loop, 8th nucleotide from both ends of the loop region (GCAGCATCCTCATTACCCTAGCTGC; biotin in loop, hairpin stem-loop, further chemistry not given here)
Streptavidin [1]; ¼ molar equivalent of streptavidin vs. none
  response of the fluorescence signal of the unimolecular probe to addition of the receptor agent (conjugation position dependence): did not work properly as a unimolecular probe

B1: second probe: immobilized trimolecular affinity probe of Example 9: OB1-1B, CM1-4B and CM3* (nucleic acid)
chain 1: ATGGAAGTATATGGAAGTATATGGAAGTATTCGTGGGGTTTTGCAGTCGTAG
chain 2: GACTGCAAAACCCC
chain 3: CTACGACTGCAA
modifications: chain 1: DNA, backbone not given here; chain 2: DNA, backbone not given here; chain 3: DNA, 5' {Fluorescein}, backbone not given here; OB1-1B biotin at 5' first nucleotide, CM1-4B biotin ligand, further chemistry not fully specified
Streptavidin [5]
  increase of fluorescence intensity, normalized to intensity in the absence of the receptor agent: 2-3.5 fold
